Laboratory results reported in PMC10992699, “Comparative structure activity and target exploration of 1,2-diphenylethynes in Haemonchus contortus and Caenorhabditis elegans” (International Journal for Parasitology: Drugs and Drug …, 2024).
Read-outs that look alike come from different tables or passages of the source.

Tests used:
H. contortus xL3s = experiment: H. contortus xL3 motility dose-response assay; type: cell-based, Haemonchus contortus; conditions: for IC50: read-out: Worm motility IC50 ± SD, H. contortus xL3s; for fold increased activity compared to UMW-9729, H. contortus larvae: ratio of xL3 motility IC50 to parent UMW-9729
Protocol: Immediately prior to use in assays, H. contortus L3s were exsheathed via exposure to 0.15 % (v/v) sodium hypochlorite for 20 min at 38 °C ([Preston et al., 2015]), achieving an exsheathment rate of 90 %. The larvae were then immediately washed five times with 50 mL of sterile physiological saline (pH 7.0) by centrifugation at 2000×g (5 min) and resuspended (at a concentration of 300 xL3s per 50 μL) in sterile (autoclaved) lysogeny broth (LB; cf. [Bertani, 1951]; [Taki et al., 2021b]), supplemented with final concentrations of 100 IU/mL of penicillin, 100 μg/mL of streptomycin and 0.25 μg/mL of amphotericin B (Fungizone®, cat. No. 15240-062, Gibco, Thermo Fisher Scientific, Waltham, MA, USA); this supplemented LB was designated LB*.
The dose-response assay for H. contortus followed a well-established protocol ([Taki et al., 2021b]); it was employed to evaluate the potency of hit compounds against this nematode. Test compounds were assessed individually for an effect on the motility of xL3s (10-point, 2-fold serial dilution in LB*, 40 μM–[…]). […] A solution of LB* was used as a negative control. The test compounds and positive control compounds (monepantel and moxidectin) were arrayed in triplicate across individual flat-bottom 96-well microplates, with six wells on each plate containing the negative control. Added to each well were 300 xL3s of H. contortus in 50 μL of LB* to give a final volume of 100 μL. Plates were then placed in a CO2 incubator (10 % (v/v) CO2, 38 °C, >90 % humidity; Forma, model no. 311, Thermo Fisher Scientific, USA). […] Over a period of 15 min, disturbance of an infrared beam in individual wells was recorded as an ‘activity count’. Raw ‘activity counts’ for individual wells were normalised to the negative-controls. The compound concentrations were log10-transformed and fitted using a variable slope four-parameter equation, using the ordinary least squares fit model, employing Prism (v.9.1.0 GraphPad Software, San Diego, CA, USA). Larval development was established at 168 h of incubation with compound, as described previously ([Preston et al., 2015]). The phenotypes of larvae were examined using a microscope ([Preston et al., 2015]) and recorded.

C. elegans young adults = experiment: C. elegans young adult motility dose-response assay; type: cell-based, Caenorhabditis elegans; conditions: for IC50: read-out: Worm motility IC50 ± SD, C. elegans young adults
Protocol: The eggs were then washed five times with 15 mL of sterile M9 buffer (centrifugation at 500×g, 2 min). […] were collected from plates and washed twice with sterile M9 buffer by centrifugation (500×g, 2 min) to remove E. coli OP50, and then resuspended to a concentration of 100 larvae per 50 μL in sterile (autoclaved) LB*. The dose-response assay for C. elegans followed a well-established protocol ([Taki et al., 2021a]) and was employed to evaluate the potency of hit compounds against this nematode. […] Two compounds, monepantel (ZolvixTM; Elanco, Australia) and moxidectin ([…], France) were used as positive controls and prepared in the same manner as the test compounds. […] The test compounds and positive control compounds were arrayed in triplicate across individual flat-bottom 96-well microplates (cat. no. 3596; Corning, Corning, NY, USA), with six wells on each plate containing the negative control. Added to each well were 100 C. elegans in 50 μL of LB* to give a final volume of 100 μL. Plates were then placed in an incubator ([…], model no. IMP180, Thermo Fisher Scientific, USA) at 20 °C for 40 h. […] Over 15 min, disturbance of an infrared beam in individual wells was recorded as an 'activity count'. Raw 'activity counts' for each well were normalised to the negative controls. The compound concentrations were log10-transformed and fitted using a variable slope four-parameter equation, using the ordinary least squares fit model, employing the program Prism (v.9.1.0 GraphPad Software, San Diego, CA, USA).

[1] = tested on: adult females of Haemonchus contortus; experiment: Motility of adult female H. contortus in vitro; type: cell-based; conditions: 40 μM
Protocol: Adult H. contortus were collected from the abomasa of sheep infected for 10 weeks, washed extensively with phosphate-buffered saline (PBS, pH 7.4) and subsequently in RPMI 1640 media supplemented with final concentrations of 2 mM L-glutamine, 100 IU/mL of penicillin, 100 μg/mL of streptomycin and 0.25 μg/mL of amphotericin B (Thermo Fisher Scientific, Scoresby, VIC, Australia; this supplemented RPMI was designated RPMI*). Female and male worms were collected and separated immediately prior to compound testing.
The activity of UMW-9729 and six derivatives (12, 14, 15, 16, 18 and 25) was assessed on adult female specimens of H. contortus in an established assay ([Taki et al., 2020]). The compound was added in triplicate to the wells of a 24-well plate (cat. no. 3524; Corning, USA) at a concentration of 40 μM in 500 μL of RPMI* (RPMI supplemented with final concentrations of 2 mM L-glutamine, 100 IU/mL of penicillin, 100 μg/mL of streptomycin and 0.25 μg/mL of amphotericin B; Thermo Fisher Scientific, Scoresby, VIC, Australia). Two positive-control compounds, monepantel and moxidectin, and a negative control containing 1 % (v/v) DMSO only, were included in triplicates on the same plate. Three adult females were added to each of the triplicate wells containing either the test compound or the controls and placed in a CO2 incubator (10 % (v/v) CO2, 40 °C, >90 % relative humidity) for 1 day. A video recording (30 s) of each well was taken at 3 h, 6 h, 12 h and 24 h during the total incubation period to assess the reduction in worm motility, which was scored as 3 (“good”), 2 (“low”), 1 (“very low”) or 0 (“no movement”; cf. [Taki et al., 2020]). For each test or control compound, the motility scores for each of the triplicate wells were calculated, normalised with reference to the negative control (100 % motility) and recorded as a percentage.

[2] = Haemonchus contortus, 90 h, xL3s, 90 h incubation (table title), three independent assays in triplicate
[3] = Caenorhabditis elegans, 40 h, young adults, 40 h incubation, three independent assays in triplicate
[4] = xL3s, 90 h incubation (table title), three independent assays in triplicate
[5] = 24 h of incubation, normalised to negative control
[6] = young adults, 40 h incubation, three independent assays in triplicate

Row | SMILES | IC50 (H. contortus xL3s; [2]) [µM] | IC50 (C. elegans young adults; [3]) [µM] | further results
1 | CO/N=C1\C[C@]2(C[C@@H]3C[C@@H](C/C=C(\C)C[C@@H](C)/C=C/C=C4\CO[C@@H]5[C@H](O)C(C)=C[C@@H](C(=O)O3)[C@]45O)O2)O[C@H](/C(C)=C/C(C)C)[C@H]1C [Moxidectin, moxidectin, reference compound] | 18 ± 9.1 | 0.003 | 
2 | C[C@](C#N)(COc1cc(C#N)ccc1C(F)(F)F)NC(=O)c1ccc(SC(F)(F)F)cc1 [Monepantel, monepantel, reference compound] | 0.6 ± 0.2 | 0.03 ± 0.01 | 
3 | C(#Cc1cccc(-c2ccn[nH]2)c1)c1ccccc1 [Compound 26, 5-(3-(phenylethynyl)phenyl)-1H-pyrazole] | > 40 | > 40 | Worm motility IC50 ± SD, H. contortus xL3s (H. contortus xL3s; [4]): complete loss of activity
4 | Clc1ccc(C#Cc2ccc(-c3ccn[nH]3)cc2)cc1 [Compound 20] | 3.7 ± 1.1 | > 40 | 
5 | Clc1ccccc1C#Cc1ccc(-c2ccn[nH]2)cc1 [Compound 9] | 4.8 ± 0.7 | > 40 | 
6 | c1ccc(CCc2ccc(-c3ccn[nH]3)cc2)cc1 [Compound 28] | 16 ± 4.9 | > 40 | 
7 | C(#Cc1ccc(-c2ccn[nH]2)cn1)c1ccccc1 [Compound 24] | 24 ± 8.5 | > 40 | Worm motility IC50 ± SD, C. elegans young adults (C. elegans young adults; [6]): loss in activity
8 | C(#Cc1ccccn1)c1ccc(-c2ccn[nH]2)cc1 [Compound 10] | 8.7 ± 2.5 | > 40 | Worm motility IC50 ± SD, C. elegans young adults (C. elegans young adults; [6]): loss of compound activity
9 | C[Si](C)(C)C#Cc1ccc(-c2ccn[nH]2)cc1 [Compound 23] |  |  | IC50 (H. contortus xL3s; Haemonchus contortus, 90 h): > 40 µM; Worm motility IC50 ± SD, H. contortus xL3s (H. contortus xL3s; [4]): complete loss of activity; IC50 (C. elegans young adults; Caenorhabditis elegans, 40 h): > 40 µM
10 | COc1ccccc1C#Cc1ccc(-c2ccn[nH]2)cc1 [Compound 6] | > 40 | > 40 | 
11 | Cc1nc(-c2ccc(C#Cc3ccccc3)cc2)no1 [Compound 32] | 5.1 ± 0.5 | 18 ± 11 | 
12 | C#Cc1ccc(-c2ccn[nH]2)cc1 [Compound 27, 5-(4-ethynylphenyl)-1H-pyrazole] | > 40 | > 40 | Worm motility IC50 ± SD, H. contortus xL3s (H. contortus xL3s; [4]): complete loss of activity
13 | C(#Cc1ccc(-c2ccn[nH]2)cc1)c1ccncc1 [Compound 22] | > 40 | > 40 | Worm motility IC50 ± SD, H. contortus xL3s (H. contortus xL3s; [4]): inactive
14 | Cn1nccc1-c1ccc(C#Cc2ccccc2)cc1 [Compound 25] |  |  | fold increased activity compared to UMW-9729, H. contortus larvae (H. contortus xL3s): 3 fold; Maximum motility inhibition (MMI), H. contortus xL3s (H. contortus xL3s; xL3s, 90 h incubation (table title)): 73%; IC50 (H. contortus xL3s; [4]): 1.9 ± 0.14 µM; Worm motility IC50 ± SD, C. elegans young adults (C. elegans young adults; [6]): inactive; IC50 (C. elegans young adults; [6]): > 40 µM; reduction of worm motility, adult females of H. contortus ([1]; 3 h time point): did not display a reduction in motility; reduction of worm motility, adult females of H. contortus ([1]; 6 h time point): did not display a reduction in motility; reduction of worm motility, adult females of H. contortus ([1]; 12 h time point): did not display a reduction in motility
15 | N#Cc1ccc(C#Cc2ccc(-c3ccn[nH]3)cc2)cc1 [Compound 21] | 6.7 ± 4.2 | > 40 | 

Continued, in another order:

Row | IC50 (H. contortus xL3s; [2]) [µM] | IC50 (C. elegans young adults; [3]) [µM] | SMILES | further results
16 | > 40 | 8.2 ± 7.8 | Clc1cccc(C#Cc2ccc(-c3ccn[nH]3)cc2)c1 [Compound 15] | Worm motility IC50 ± SD, H. contortus xL3s (H. contortus xL3s; [4]): loss of activity; fold increased activity compared to UMW-9729, C. elegans (C. elegans young adults; ratio of motility IC50 to parent UMW-9729): ~2 fold; reduction of worm motility, adult females of H. contortus [1, 5]: 23%
17 | 5.2 ± 0.9 | 9 | Fc1cccc(C#Cc2ccc(-c3ccn[nH]3)cc2)c1 [Compound 14] | IC50 (C. elegans young adults; [6]): 8 ± 1.8 µM; reduction of worm motility, adult females of H. contortus [1, 5]: 29%
18 | > 40 | > 40 | FC(F)(F)c1ccccc1C#Cc1ccc(-c2ccn[nH]2)cc1 [Compound 7] | 
19 | 12 | 3.7 ± 1.9 | Fc1ccccc1C#Cc1ccc(-c2ccn[nH]2)cc1 [Compound 8] | IC50 (H. contortus xL3s; [4]): 13 ± 4.5 µM
20 | > 40 | > 40 | COc1ccc(C#Cc2ccc(-c3ccn[nH]3)cc2)cc1 [Compound 19] | Worm motility IC50 ± SD, H. contortus xL3s (H. contortus xL3s; [4]): inactive
21 | 8.2 ± 1.9 | 12 ± 7 | FC(F)(F)c1cccc(C#Cc2ccc(-c3ccn[nH]3)cc2)c1 [Compound 12] | reduction of worm motility, adult females of H. contortus [1, 5]: 29%
22 | 6.8 ± 0.1 | > 40 | C(#Cc1cccnc1)c1ccc(-c2ccn[nH]2)cc1 [Compound 16] | Worm motility IC50 ± SD, H. contortus xL3s (H. contortus xL3s; [4]): equipotent; Worm motility IC50 ± SD, C. elegans young adults (C. elegans young adults; [6]): loss of activity; reduction of worm motility, adult females of H. contortus [1, 5]: 15%
23 | 13 ± 5.7 | > 40 | Cc1cccc(C#Cc2ccc(-c3ccn[nH]3)cc2)c1 [Compound 11] | Worm motility IC50 ± SD, C. elegans young adults (C. elegans young adults; [6]): lost activity
24 | 2 ± 0.1 | > 40 | Cc1ccc(C#Cc2ccc(-c3ccn[nH]3)cc2)cc1 [Compound 18] | fold increased activity compared to UMW-9729, H. contortus larvae (H. contortus xL3s): 3 fold; Worm motility IC50 ± SD, C. elegans young adults (C. elegans young adults; [6]): inactive; reduction of worm motility, adult females of H. contortus [1, 5]: 15%
25 | 29 ± 12 | 25 ± 7 | Oc1cccc(C#Cc2ccc(-c3ccn[nH]3)cc2)c1 [Compound 17] | 
26 | > 40 | > 40 | FC(F)(F)Oc1cccc(C#Cc2ccc(-c3ccn[nH]3)cc2)c1 [Compound 13] | 
